Laboratory results: publication PMC12155096 (International Journal of Molecular Sciences, 2025)
Structures can show the parent of a compound that is named as a salt.

Target: T1, human CYP2C9 (Homo sapiens, UniProt P11712)
Assay: not given
Details: not given

T1 sequence (P11712 whole entry): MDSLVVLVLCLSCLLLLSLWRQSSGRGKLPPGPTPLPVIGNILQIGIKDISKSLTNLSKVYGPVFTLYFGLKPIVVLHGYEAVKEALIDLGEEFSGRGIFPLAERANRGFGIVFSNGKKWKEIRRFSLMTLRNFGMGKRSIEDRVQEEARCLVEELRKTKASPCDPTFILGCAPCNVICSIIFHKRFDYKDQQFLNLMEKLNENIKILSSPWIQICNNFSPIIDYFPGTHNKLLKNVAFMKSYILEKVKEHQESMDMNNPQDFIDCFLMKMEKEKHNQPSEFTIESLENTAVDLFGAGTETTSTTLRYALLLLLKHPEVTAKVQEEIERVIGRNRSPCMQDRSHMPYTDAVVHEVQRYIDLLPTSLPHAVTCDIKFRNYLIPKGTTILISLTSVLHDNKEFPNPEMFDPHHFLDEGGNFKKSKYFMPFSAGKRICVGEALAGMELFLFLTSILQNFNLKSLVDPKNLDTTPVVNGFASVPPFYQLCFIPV

Structure (SMILES) | CYP2C9 IC50
CCN(CC)CCOC(=O)C(Cc1cccc2ccccc12)CC1CCCO1 (stereo not drawn) [Nafronyl oxalate] | Inactive
CO[C@]12C[C@@H](COC(=O)c3cncc(Br)c3)CN(C)[C@@H]1Cc1cn(C)c3cccc2c13 [Nicergoline] | Inactive
Cc1ccc(N(CC2=NCCN2)c2cccc(O)c2)cc1 [Phentolamine mesilate] | Inactive
CN1CCC(=C2c3ccccc3CCc3sccc32)CC1 [Pizotifen] | Inactive
CN1CCC(N(Cc2cccs2)c2ccccc2)CC1 [Thenalidine] | Inactive

Same assay, conditions: human

Structure (SMILES) | CYP2C9 Efficacy (in parenthesis)
O=[N+]([O-])c1c2ccccc2cc2ccccc12 [9-Nitroanthracene] | 13.51 ± 1.21 (-86 ± 11) %

Target: T2, human CYP1A2 (Homo sapiens, UniProt P05177)
T2 sequence (P05177 1-516): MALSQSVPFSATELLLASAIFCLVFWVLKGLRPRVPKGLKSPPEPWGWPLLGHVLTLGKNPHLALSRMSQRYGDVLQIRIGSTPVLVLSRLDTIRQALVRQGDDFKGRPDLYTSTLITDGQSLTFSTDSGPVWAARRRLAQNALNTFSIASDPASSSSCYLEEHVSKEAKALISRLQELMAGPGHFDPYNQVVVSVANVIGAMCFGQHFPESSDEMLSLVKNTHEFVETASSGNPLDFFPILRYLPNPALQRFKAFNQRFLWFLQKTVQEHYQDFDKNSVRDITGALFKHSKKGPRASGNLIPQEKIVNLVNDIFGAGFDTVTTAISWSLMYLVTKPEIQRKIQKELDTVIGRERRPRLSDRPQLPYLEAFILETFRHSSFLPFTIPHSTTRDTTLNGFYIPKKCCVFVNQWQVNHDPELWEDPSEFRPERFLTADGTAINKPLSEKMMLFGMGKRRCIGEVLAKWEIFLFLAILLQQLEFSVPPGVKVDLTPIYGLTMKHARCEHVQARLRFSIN
Assay: not given
Details: not given

Structure (SMILES) | CYP1A2 IC50 | CYP1A2 IC50 (half-maximal inhibitory concentration)
CCc1cccc(N(C)C(N)=Nc2cccc3ccccc23)c1 [Aptiganel hydrochloride] | Inactive | 
COC(=O)C1=C(C)NC(C)=C(C(=O)OCCN2CCN(C(c3ccccc3)c3ccccc3)CC2)C1c1cccc([N+](=O)[O-])c1 (stereo not drawn) [Manidipine] |  | Inactive
Cc1ccc(N(CC2=NCCN2)c2cccc(O)c2)cc1 [Phentolamine mesilate] | Inactive | 
CN1CCC(=C2c3ccccc3CCc3sccc32)CC1 [Pizotifen] | Inactive | 
CCOC(=O)COc1ccc2c(c1)C[C@@H](NC[C@H](O)c1cccc(Cl)c1)CC2 [SR58611] |  | Inactive
CN1CCC(N(Cc2cccs2)c2ccccc2)CC1 [Thenalidine] | Inactive | 

Same assay, conditions: human

Structure (SMILES) | CYP1A2 Efficacy (in parenthesis)
O=[N+]([O-])c1c2ccccc2cc2ccccc12 [9-Nitroanthracene] | 0.27 ± 0.04 (-96 ± 5) %

Target: T3, human CYP2C19 (Homo sapiens, UniProt P33261)
Assay: not given
Details: human

T3 sequence (P33261 whole entry): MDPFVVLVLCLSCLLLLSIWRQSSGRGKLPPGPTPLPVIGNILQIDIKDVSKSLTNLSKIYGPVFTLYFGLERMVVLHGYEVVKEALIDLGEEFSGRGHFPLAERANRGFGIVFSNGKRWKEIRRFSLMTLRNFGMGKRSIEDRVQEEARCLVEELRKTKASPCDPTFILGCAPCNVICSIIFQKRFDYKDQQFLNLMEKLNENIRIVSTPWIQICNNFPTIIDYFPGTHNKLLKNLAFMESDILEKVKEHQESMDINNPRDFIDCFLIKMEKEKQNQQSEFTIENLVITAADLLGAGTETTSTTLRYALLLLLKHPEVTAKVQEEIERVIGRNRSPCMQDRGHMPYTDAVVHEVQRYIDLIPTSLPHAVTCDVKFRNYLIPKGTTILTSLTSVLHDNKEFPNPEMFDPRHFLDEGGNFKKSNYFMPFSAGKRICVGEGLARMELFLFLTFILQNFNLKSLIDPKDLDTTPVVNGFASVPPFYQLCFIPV

Structure (SMILES) | CYP2C19 Efficacy (in parenthesis)
O=[N+]([O-])c1c2ccccc2cc2ccccc12 [9-Nitroanthracene] | 19.86 ± 2.28 (-116 ± 4) %

Target: T4, human CYP2D6 (Homo sapiens, UniProt P10635)
Assay: biochemical
Details: not given

T4 sequence (P10635 whole entry): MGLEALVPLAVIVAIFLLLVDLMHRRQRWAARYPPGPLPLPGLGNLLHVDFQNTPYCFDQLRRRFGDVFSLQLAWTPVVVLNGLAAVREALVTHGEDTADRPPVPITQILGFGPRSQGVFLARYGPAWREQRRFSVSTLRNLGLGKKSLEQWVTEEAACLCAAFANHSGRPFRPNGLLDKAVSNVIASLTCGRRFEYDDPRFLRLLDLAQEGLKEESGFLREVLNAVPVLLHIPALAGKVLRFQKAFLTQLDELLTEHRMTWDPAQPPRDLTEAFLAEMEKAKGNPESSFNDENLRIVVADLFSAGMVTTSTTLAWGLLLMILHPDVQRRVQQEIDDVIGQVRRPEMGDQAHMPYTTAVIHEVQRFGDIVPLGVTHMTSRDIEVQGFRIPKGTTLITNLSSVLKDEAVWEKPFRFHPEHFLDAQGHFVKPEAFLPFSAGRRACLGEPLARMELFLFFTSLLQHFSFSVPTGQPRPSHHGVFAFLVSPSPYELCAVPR

Structure (SMILES) | IC50 [µM]
Nc1ccc(C(=O)N2CC3CC(CN(Cc4ccccc4)C3)C2)cc1 [Ambasilide] | 20.1
CCC1(c2cnc[nH]2)Cc2ccccc2C1 [Atipamezole] | 0.87 ± 0.1
CN(C)[C@@H](CCOc1cccc2ccccc12)c1ccccc1 [Dapoxetine] | 0.98 ± 0.11
CCCCCCCCCCCCCCCC[N+](C)(C)CC [Ethylhexadecyldimethylammonium bromide] | 0.61 ± 0.04
CN(C)c1ccc(N=NS(=O)(=O)O)cc1 [Fenaminosulf] | 12.2
COP(=S)(OC)Oc1ccc(SC)c(C)c1 [Fenthion] | 37.2
O=c1cc(-c2ccccc2)oc2ccccc12 [Flavone] | 62.5 ± 38.1
COC(=O)C1=C(C)NC(C)=C(C(=O)OCCN2CCN(C(c3ccccc3)c3ccccc3)CC2)C1c1cccc([N+](=O)[O-])c1 (stereo not drawn) [Manidipine] | 6.17 ± 5.32
COc1nn(CSP(=S)(OC)OC)c(=O)s1 [Methidathion] | 35.7
CCOC(=O)COc1ccc2c(c1)C[C@@H](NC[C@H](O)c1cccc(Cl)c1)CC2 [SR58611] | 0.66 ± 0.18

Same assay, conditions: CYP2D6 AC50 (half-maximal activity concentration)

Structure (SMILES) | AC50 [µM]
CN1CCC(=C2c3ccccc3CCc3sccc32)CC1 [Pizotifen] | 0.96
CN1CCC(N(Cc2cccs2)c2ccccc2)CC1 [Thenalidine] | 0.53

Same assay, conditions: CYP2D6 IC50

Structure (SMILES) | IC50 [µM]
CCc1cccc(N(C)C(N)=Nc2cccc3ccccc23)c1 [Aptiganel hydrochloride] | 0.14
CCN(CC)CCOC(=O)C(Cc1cccc2ccccc12)CC1CCCO1 (stereo not drawn) [Nafronyl oxalate] | 2.98
CO[C@]12C[C@@H](COC(=O)c3cncc(Br)c3)CN(C)[C@@H]1Cc1cn(C)c3cccc2c13 [Nicergoline] | 0.07
Cc1ccc(N(CC2=NCCN2)c2cccc(O)c2)cc1 [Phentolamine mesilate] | 0.65
CN1CCC(=C2c3ccccc3CCc3sccc32)CC1 [Pizotifen] | 0.96
CN1CCC(N(Cc2cccs2)c2ccccc2)CC1 [Thenalidine] | 0.53

Same assay, conditions: CYP2D6 IC50 (half-maximal inhibitory concentration)

Structure (SMILES) | IC50 [µM]
O=[N+]([O-])c1c2ccccc2cc2ccccc12 [9-Nitroanthracene] | 34

Target: T4, human CYP2D6
Assay: not given
Details: human

Structure (SMILES) | CYP2D6 Efficacy (in parenthesis)
O=[N+]([O-])c1c2ccccc2cc2ccccc12 [9-Nitroanthracene] | 34.03 ± 2.33 (-39 ± 13) %

Target: T1, human CYP2C9
Assay: biochemical
Details: not given

Structure (SMILES) | IC50 [µM]
Nc1ccc(C(=O)N2CC3CC(CN(Cc4ccccc4)C3)C2)cc1 [Ambasilide] | 22.7
CCC1(c2cnc[nH]2)Cc2ccccc2C1 [Atipamezole] | 1.21 ± 0.3
CN(C)[C@@H](CCOc1cccc2ccccc12)c1ccccc1 [Dapoxetine] | 16.8 ± 2.32
CCCCCCCCCCCCCCCC[N+](C)(C)CC [Ethylhexadecyldimethylammonium bromide] | 83.1 ± 5.63
CN(C)c1ccc(N=NS(=O)(=O)O)cc1 [Fenaminosulf] | 7.38
COP(=S)(OC)Oc1ccc(SC)c(C)c1 [Fenthion] | 6.1
O=c1cc(-c2ccccc2)oc2ccccc12 [Flavone] | 14.6
COC(=O)C1=C(C)NC(C)=C(C(=O)OCCN2CCN(C(c3ccccc3)c3ccccc3)CC2)C1c1cccc([N+](=O)[O-])c1 (stereo not drawn) [Manidipine] | 0.52 ± 0.3
COc1nn(CSP(=S)(OC)OC)c(=O)s1 [Methidathion] | 6.58
CCOC(=O)COc1ccc2c(c1)C[C@@H](NC[C@H](O)c1cccc(Cl)c1)CC2 [SR58611] | 31 ± 4.26

Same assay, conditions: CYP2C9 IC50 (half-maximal inhibitory concentration)

Structure (SMILES) | IC50 [µM]
O=[N+]([O-])c1c2ccccc2cc2ccccc12 [9-Nitroanthracene] | 13.5

Target: T2, human CYP1A2
Assay: biochemical
Details: not given

Structure (SMILES) | IC50 [µM]
Nc1ccc(C(=O)N2CC3CC(CN(Cc4ccccc4)C3)C2)cc1 [Ambasilide] | 30.9
CCC1(c2cnc[nH]2)Cc2ccccc2C1 [Atipamezole] | 11 ± 2.84
CN(C)[C@@H](CCOc1cccc2ccccc12)c1ccccc1 [Dapoxetine] | 5.87 ± 1.73
CCCCCCCCCCCCCCCC[N+](C)(C)CC [Ethylhexadecyldimethylammonium bromide] | 74.4 ± 9.49
CN(C)c1ccc(N=NS(=O)(=O)O)cc1 [Fenaminosulf] | 5.75
O=c1cc(-c2ccccc2)oc2ccccc12 [Flavone] | 0.26

Same assay, conditions: CYP1A2 IC50

Structure (SMILES) | IC50 [µM]
COP(=S)(OC)Oc1ccc(SC)c(C)c1 [Fenthion] | 2.53
COc1nn(CSP(=S)(OC)OC)c(=O)s1 [Methidathion] | 6.58
CCN(CC)CCOC(=O)C(Cc1cccc2ccccc12)CC1CCCO1 (stereo not drawn) [Nafronyl oxalate] | 18.2
CO[C@]12C[C@@H](COC(=O)c3cncc(Br)c3)CN(C)[C@@H]1Cc1cn(C)c3cccc2c13 [Nicergoline] | 22

Same assay, conditions: CYP1A2 IC50 (half-maximal inhibitory concentration)

Structure (SMILES) | IC50 [µM]
O=[N+]([O-])c1c2ccccc2cc2ccccc12 [9-Nitroanthracene] | 0.27

Target: Photinus pyralis (firefly) luciferase (Photinus pyralis, UniProt P08659)
Assay: biochemical
Assay type: biochemical
Details: not given

Photinus pyralis (firefly) luciferase, sequence (P08659 whole entry): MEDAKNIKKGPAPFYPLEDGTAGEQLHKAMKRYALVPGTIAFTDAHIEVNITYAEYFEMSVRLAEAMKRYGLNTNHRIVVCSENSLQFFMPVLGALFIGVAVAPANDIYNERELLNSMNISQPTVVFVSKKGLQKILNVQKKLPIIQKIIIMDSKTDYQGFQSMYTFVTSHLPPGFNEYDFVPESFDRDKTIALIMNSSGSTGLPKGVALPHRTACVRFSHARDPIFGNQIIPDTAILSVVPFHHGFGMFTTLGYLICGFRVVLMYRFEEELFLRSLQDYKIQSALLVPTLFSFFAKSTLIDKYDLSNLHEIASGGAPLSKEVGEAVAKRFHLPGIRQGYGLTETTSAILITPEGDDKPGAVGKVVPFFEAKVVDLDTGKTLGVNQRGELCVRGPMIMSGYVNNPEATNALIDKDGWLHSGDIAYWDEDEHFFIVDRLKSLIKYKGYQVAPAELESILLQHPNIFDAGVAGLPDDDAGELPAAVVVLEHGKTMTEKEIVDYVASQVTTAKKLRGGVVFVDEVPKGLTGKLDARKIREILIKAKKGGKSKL

Structure (SMILES) | IC50 [µM] | Luciferase IC50 | Luciferase IC50 (half-maximal inhibitory concentration)
O=[N+]([O-])c1c2ccccc2cc2ccccc12 [9-Nitroanthracene] | 22.6 |  | 
Nc1ccc(C(=O)N2CC3CC(CN(Cc4ccccc4)C3)C2)cc1 [Ambasilide] |  | Inactive | 
CCc1cccc(N(C)C(N)=Nc2cccc3ccccc23)c1 [Aptiganel hydrochloride] |  | Inactive | 
CCC1(c2cnc[nH]2)Cc2ccccc2C1 [Atipamezole] |  | Inactive | 
CN(C)[C@@H](CCOc1cccc2ccccc12)c1ccccc1 [Dapoxetine] |  | Inactive | 
CCCCCCCCCCCCCCCC[N+](C)(C)CC [Ethylhexadecyldimethylammonium bromide] |  | Inactive | 
CN(C)c1ccc(N=NS(=O)(=O)O)cc1 [Fenaminosulf] | 44.1 |  | 
COP(=S)(OC)Oc1ccc(SC)c(C)c1 [Fenthion] | 44.8 |  | 
O=c1cc(-c2ccccc2)oc2ccccc12 [Flavone] | 21.6 |  | 
COC(=O)C1=C(C)NC(C)=C(C(=O)OCCN2CCN(C(c3ccccc3)c3ccccc3)CC2)C1c1cccc([N+](=O)[O-])c1 (stereo not drawn) [Manidipine] |  |  | Inactive
COc1nn(CSP(=S)(OC)OC)c(=O)s1 [Methidathion] | 44 |  | 
CCN(CC)CCOC(=O)C(Cc1cccc2ccccc12)CC1CCCO1 (stereo not drawn) [Nafronyl oxalate] |  | Inactive | 
CO[C@]12C[C@@H](COC(=O)c3cncc(Br)c3)CN(C)[C@@H]1Cc1cn(C)c3cccc2c13 [Nicergoline] |  | Inactive | 
Cc1ccc(N(CC2=NCCN2)c2cccc(O)c2)cc1 [Phentolamine mesilate] |  | Inactive | 
CN1CCC(=C2c3ccccc3CCc3sccc32)CC1 [Pizotifen] |  | Inactive | 
CCOC(=O)COc1ccc2c(c1)C[C@@H](NC[C@H](O)c1cccc(Cl)c1)CC2 [SR58611] |  |  | Inactive
CN1CCC(N(Cc2cccs2)c2ccccc2)CC1 [Thenalidine] |  | Inactive | 

Target: CYP3A4 (Homo sapiens, UniProt P08684)
Assay: not given
Details: not given

CYP3A4, sequence (P08684 whole entry): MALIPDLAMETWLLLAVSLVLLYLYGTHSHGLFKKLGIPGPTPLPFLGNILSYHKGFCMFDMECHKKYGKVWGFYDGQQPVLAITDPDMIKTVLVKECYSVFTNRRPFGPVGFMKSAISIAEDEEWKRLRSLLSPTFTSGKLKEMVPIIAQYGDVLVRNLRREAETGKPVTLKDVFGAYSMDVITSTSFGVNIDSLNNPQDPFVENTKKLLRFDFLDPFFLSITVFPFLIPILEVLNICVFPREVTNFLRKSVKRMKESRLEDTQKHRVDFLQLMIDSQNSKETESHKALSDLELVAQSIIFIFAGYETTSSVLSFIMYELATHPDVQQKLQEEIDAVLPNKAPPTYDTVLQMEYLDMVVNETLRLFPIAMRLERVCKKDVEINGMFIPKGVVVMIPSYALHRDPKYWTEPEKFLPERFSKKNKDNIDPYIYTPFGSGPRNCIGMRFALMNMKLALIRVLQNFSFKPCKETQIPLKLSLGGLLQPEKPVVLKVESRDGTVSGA

Structure (SMILES) | CYP3A4 IC50 | CYP3A4 IC50 (half-maximal inhibitory concentration)
CCc1cccc(N(C)C(N)=Nc2cccc3ccccc23)c1 [Aptiganel hydrochloride] | Inactive | 
COC(=O)C1=C(C)NC(C)=C(C(=O)OCCN2CCN(C(c3ccccc3)c3ccccc3)CC2)C1c1cccc([N+](=O)[O-])c1 (stereo not drawn) [Manidipine] |  | Inactive
CCOC(=O)COc1ccc2c(c1)C[C@@H](NC[C@H](O)c1cccc(Cl)c1)CC2 [SR58611] |  | Inactive

Target: T3, human CYP2C19
Assay: biochemical
Details: not given

Structure (SMILES) | IC50 [µM]
Nc1ccc(C(=O)N2CC3CC(CN(Cc4ccccc4)C3)C2)cc1 [Ambasilide] | 30
CCC1(c2cnc[nH]2)Cc2ccccc2C1 [Atipamezole] | 1.42 ± 0.4
CN(C)[C@@H](CCOc1cccc2ccccc12)c1ccccc1 [Dapoxetine] | 1.21 ± 0.3
CCCCCCCCCCCCCCCC[N+](C)(C)CC [Ethylhexadecyldimethylammonium bromide] | 89.6
CN(C)c1ccc(N=NS(=O)(=O)O)cc1 [Fenaminosulf] | 1.36
O=c1cc(-c2ccccc2)oc2ccccc12 [Flavone] | 23.2 ± 7.47
COC(=O)C1=C(C)NC(C)=C(C(=O)OCCN2CCN(C(c3ccccc3)c3ccccc3)CC2)C1c1cccc([N+](=O)[O-])c1 (stereo not drawn) [Manidipine] | 2.39 ± 2.01
CCOC(=O)COc1ccc2c(c1)C[C@@H](NC[C@H](O)c1cccc(Cl)c1)CC2 [SR58611] | 35.2 ± 8.79

Same assay, conditions: CYP2C19 AC50 (half-maximal activity concentration)

Structure (SMILES) | AC50 [µM]
CN1CCC(=C2c3ccccc3CCc3sccc32)CC1 [Pizotifen] | 8.71

Same assay, conditions: CYP2C19 IC50

Structure (SMILES) | IC50 [µM]
COP(=S)(OC)Oc1ccc(SC)c(C)c1 [Fenthion] | 0.91
COc1nn(CSP(=S)(OC)OC)c(=O)s1 [Methidathion] | 0.8
CCN(CC)CCOC(=O)C(Cc1cccc2ccccc12)CC1CCCO1 (stereo not drawn) [Nafronyl oxalate] | 7.76
CO[C@]12C[C@@H](COC(=O)c3cncc(Br)c3)CN(C)[C@@H]1Cc1cn(C)c3cccc2c13 [Nicergoline] | 11.8
Cc1ccc(N(CC2=NCCN2)c2cccc(O)c2)cc1 [Phentolamine mesilate] | 14.6
CN1CCC(=C2c3ccccc3CCc3sccc32)CC1 [Pizotifen] | 8.71
CN1CCC(N(Cc2cccs2)c2ccccc2)CC1 [Thenalidine] | 36.8

Same assay, conditions: CYP2C19 IC50 (half-maximal inhibitory concentration)

Structure (SMILES) | IC50 [µM]
O=[N+]([O-])c1c2ccccc2cc2ccccc12 [9-Nitroanthracene] | 19.9
